Source: patent US20220220565A1, “METHODS AND COMPOSITIONS FOR TREATING MELANOMA” (INSERM (INSTITUT NATIONAL DE LA SANTÉ ET DE LA RECHERCHE …, priority 2019, published 2022)
“Also recorded” adds a separate entry of the source.

Tests used:
[1] = system: PTX3-expressing 501Mel cells; experiment: PTX3-mediated cell migration; type: cell-based, human; details: data not shown
Experimental: (§1) Serum-stimulated chemotaxis, invasion and transendothelial migration were monitored using modified Boyden chambers (8 μm pores, Sigma) as described before. For invasion assays, the upper side of the filter was coated with 0.5 mg.ml-1 matrigel (Corning, N.Y., USA). Migrated cells were stained with crystal violet and counted (four fields randomly per well). For transendothelial migration, 105 HUVECs were grown in the upper chamber of gelatin-coated

melanoma cells = experiment: Cell migration upon IKK targeting; type: cell-based, human; details: IKK targeting in melanoma cells
Experimental: as §1

501Mel control cells = experiment: Cell migration of control cells; type: cell-based, human; details: IKK inhibition or TWIST1 depletion
Experimental: as §1

PTX3 = PTX3 expression and secretion (immunoblot of lysates and CM); type: cell-based, human; details: 1205Lu cells treated with IKK inhibitor
Experimental: (§2) Immunohistochemistry and immunoblot analysis were performed as described before. IHC analysis was performed on melanoma tissue microarrays (US Biomax, MD, USA) using PTX3 antibody (HPA069320, Sigma-Aldrich; 1:50). For immunoblotting, the following antibodies were used at 1:1,000: SPARC (Bio-Techne), PTX3 (Enzo Life Sciences, Switzerland), HSP90, HSP60, TLR4, Fibronectin, ERK2 (Santa Cruz Biotechnology), MITF (Thermo Fisher Scientific), TWIST1 (Abcam, UK), SNAIL, phospho-IKKα/β (Ser176/180), NF-κB p65, phospho-NF-κB p65 (Ser536), I[…]B[…] (L35A5), I[…]B[…] (Ser32/36), IKKα, IKKβ, MYD88, phospho-AKT (Ser473), phospho-ERK1/2 (Thr202/Tyr204) (Cell Signaling Technology, MA, USA).

[2] = system: EMT factors TWIST1 and SNAIL; experiment: EMT factor expression (immunoblot); type: cell-based, human; details: IKK targeting in melanoma cells
Experimental: as §2

SKMel28 cells = experiment: In vitro scratch assay; type: cell-based, human; details: rhPTX3 added to wounded monolayers of PTX3-negative cells
Experimental: (§3) Transwell inserts and treated with human TNFa (10 ng.ml-1) for 16 h. Melanoma cells were allowed to migrate for 6 h or 16 h and migrated cells were visualized and quantified as before. Pictures of five random fields were captured for quantification using NIH ImageJ analysis software. For scratch assays, melanoma cells were grown approximately 80% confluence in 6-well plates. Wounds were generated using a sterile 200 μl pipette tip across each well. Following treatment with rhPTX3 or CM, pictures of four random fields were captured using an imaging station and the number of migrated cells in wounded area was counted with NIH ImageJ analysis software.

1205Lu cells [3] = experiment: Matrigel invasion assay; type: cell-based, human; details: siPTX3-transfected cells, rhPTX3 100 ng.ml-1
Experimental: as §1, §3

A375 cells = experiment: Serum-stimulated migration (modified Boyden chamber / Transwell); type: cell-based, human; details: siPTX3-transfected cells, rhPTX3 100 ng.ml-1
Experimental: as §1, §3

1205Lu cells [4] = experiment: as above; type: cell-based, human
Experimental: as §1, §3

1205Lu cells [5] = experiment: Transendothelial migration on monolayers of TNFα-activated HUVECs; type: cell-based, human; details: rhPTX3 100 ng.ml-1, 6 h
Experimental: as §1, §3

1205Lu-Luc+ cells [6] = experiment: Experimental lung metastasis (long-term lung colonization) by bioluminescent melanoma cells; type: in vivo, nude mice
Experimental: All mouse experiments were carried out in accordance with the Institutional Animal Care and local ethics committees. For experimental lung metastasis studies, 5-week-old female nude mice (Harlan, IN, USA) were intravenously injected with 1205Lu Luc+cells (1×106) that were transduced with a non targeting shRNA lentivirus (shCTRL) or a PTX3 targeting shRNA lentivirus (shPTX3-5). Images were acquired using a Photon Imager (Biospace Lab, France) on mice injected i.p with 50mg.kg-1 D-luciferin (PerkinElmer, MA, USA). Lung metastasis was monitored and quantified using BLI [12]. In a second set of experiments, short-term lung colonization assays were performed with Cell Tracker Orange-stained 501Mel cells stably expressing PTX3 or not. Cells were intravenously injected in 5-week-old female nude mice that were sacrificed either 30 min or 24 h later. Lungs were perfused with PBS, fixed in 4% paraformaldehyde, OCT-embedded, cryosectioned, immunostained and imaged using a confocal microscope as described.

1205Lu-Luc+ cells [7] = experiment: In vitro cell migration of shRNA-transduced cells (Boyden chamber); type: cell-based, human; details: among shPTX3-1 to 5; data not shown
Experimental: Negative control, PTX3 siRNA duplexes were designed by Thermo Fisher Scientific. MITF (sc-35934), MYD88 (sc-35986) and TWIST1 (sc-38604) siRNAs were from Santa Cruz Biotechnology (TX, USA). IKKα, IKKβ, and TLR4 siRNAs were from Dharmacon (CO, USA). Transfection of siRNA was carried out using Lipofectamine RNAiMAX (Thermo Fisher Scientific), at a final concentration of 25 or 50 nM. Unless stated otherwise, cells were assayed 3 days post transfection. Lentiviral vectors for stable knockdown of PTX3 (NM_002852) in melanoma cells were TRC1.5-pLKO.1-puro vectors containing a s (shPTX3-1 to 5) (Genomic center, University of Minnesota, USA). Lentiviral, packaging (psPAX2) and enveloppe (pMD2.0G) vectors were transfected into HEK293T cells and virus-containing supernatant fractions were harvested after 72 h. The supernatant fractions were filtered and used to infect bioluminescent 1205Lu cells (1205Lu-Luc+) that were described before. Transduced cells were selected with 2 μg/ml puromycin for 3 weeks. The efficiency of PTX3 knockdown was assessed by immunoblotting and analysis of in vitro cell migration using modified Boyden chambers. […]
Serum-stimulated chemotaxis, invasion and transendothelial migration were monitored using modified Boyden chambers (8 μm pores, Sigma) as described before. […] Migrated cells were stained with crystal violet and counted (four fields randomly per well). […]

Cc1ccc2nc(NCCN)c3ncc(C)n3c2c1 [BMS345541]
PTX3-mediated cell migration [1]: reduction of PTX3-mediated cell migration
cell migration (melanoma cells): reduced
migration of control cells (501Mel control cells): also reduced
autocrine production of PTX3 (PTX3): impaired the autocrine production of PTX3
EMT factors levels [2]: reduced EMT factors levels

recombinant PTX3: recombinant human PTX3 (Bio-Techne)
migration in wound area (SKMel28 cells): enhanced the migration
rescue of invasiveness of PTX3-depleted cells (1205Lu cells [3]): restored the impaired invasiveness
rescue of migration of PTX3-depleted cells (A375 cells): rescued the migratory ability
rescue of migration by recombinant PTX3 in cells treated with a MYD88 inhibitory peptide (1205Lu cells [4]; data not shown): failed to rescue migration
rescue of migration of PTX3-depleted cells (1205Lu cells [4]; siPTX3-transfected cells, rhPTX3 100 ng.ml-1): rescued the migratory ability; also recorded: restored the migration
rescue of migration of TLR4 silenced cells (1205Lu cells [4]; siTLR4-transfected cells stimulated with rhPTX3 for 4 h): ineffective to restore the migration
rescue of transendothelial migration of PTX3-depleted cells (1205Lu cells [5]): rescued

shPTX3-5: lentiviral shRNA for stable knockdown of PTX3 (TRC1.5-pLKO.1-puro vector), SEQ ID NO: 1 (DNA CCGGGAGGAGCTCAGTATGTTTCATCTCGAGATGAAACATACTGAGCTCCTCTTTTTTG)
arrest of injected cells into the lungs (BLI) (1205Lu-Luc+ cells [6]; 15 min after tail vein injection, vs shCTRL): equally arrested into the lungs
lung colonization (BLI) (1205Lu-Luc+ cells [6]; during 15 days after tail vein injection, vs shCTRL): dramatic reduction in lung colonization
reduction in experimental lung metastasis (ex vivo BLI) (1205Lu-Luc+ cells [6]; endpoint of the assay, stable PTX3 knockdown vs control cells): 6 fold
reduction of cell migration compared to shCtrl (1205Lu-Luc+ cells [7]): most efficient in reducing cell migration
